The text below walks through data of patent US10093611B2, “Benzocycloalkenes as antifungal agents” (Bayer Intellectual Property GmbH, priority 2010, dated 2018).

One data set has as its system Alternaria solani. Nature of the data set: In vivo preventive test on Alternaria solani (tomato). To be noted: 500 ppm of active ingredient, evaluated 7 days after inoculation. On the procedure: EXAMPLE A: IN VIVO PREVENTIVE TEST ON ALTERNARIA SOLANI (TOMATO) Solvent: 49 parts by weight of N,N-dimethylformamide Emulsifier: 1 part by weight of Alkylarylpolyglycolether To produce a suitable preparation of active compound, 1 part by weight of active compound is mixed with the stated amounts of solvent and emulsifier, and the concentrate is diluted with water to the desired concentration. To test for preventive activity, young plants are sprayed with the preparation of active compound at the stated rate of application. One day after this treatment, the plants are inoculated with an aqueous spore suspension of Alternaria solani. The plants remain for one day in an incubation cabinet at approximately 22° C. and a relative atmospheric humidity of 100%. Then the plants are placed in an incubation cabinet at approximately 20° C. and a relative atmospheric humidity of 96%. The test is evaluated 7 days after the inoculation. 0% means an efficacy which corresponds to that of the control while an efficacy of 100% means that no disease is observed. Under these conditions, good (at least 80%) to total protection is observed at a dose of 500 ppm of active ingredient with the following compounds from table A: […]

A further data set relates to Pyrenophora teres. The data set can be described thus: In vivo preventive test on Pyrenophora teres (barley). To be noted: 500 ppm of active ingredient, evaluated 7-9 days after inoculation. On the procedure: EXAMPLE F: IN VIVO PREVENTIVE TEST ON PYRENOPHORA TERES (BARLEY) Solvent: 49 parts by weight of N,N-dimethylformamide Emulsifier: 1 part by weight of Alkylarylpolyglycolether To produce a suitable preparation of active compound, 1 part by weight of active compound is mixed with the stated amounts of solvent and emulsifier, and the concentrate is diluted with water to the desired concentration. To test for preventive activity, young plants are sprayed with the preparation of active compound at the stated rate of application. One day after this treatment, the plants are inoculated with an aqueous spore suspension of Pyrenophora teres. The plants remain for 48 hours in an incubation cabinet at 22° C. and a relative atmospheric humidity of 100%. Then the plants are placed in a greenhouse at a temperature of approximately 20° C. and a relative atmospheric humidity of approximately 80%. The test is evaluated 7-9 days after the inoculation. 0% means an efficacy which corresponds to that of the untreated control while an efficacy of 100% means that no disease is observed. Under these conditions, high (at least 90%) to total protection is observed at a dose of 500 ppm of active ingredient with the following compounds from table F: […]

A short description of data set [1]: log P by HPLC on reversed-phase column (C 18), EEC Directive 79/831 Annex V.A8. In kind it is physicochemical. To be noted: C 18 reversed phase, 40° C., 0.1% aqueous formic acid and acetonitrile gradient. How it is done: In table 1, the log P values were determined in accordance with EEC Directive 79/831 Annex V.A8 by HPLC (High Performance Liquid Chromatography) on a reversed-phase column (C 18), using the method described below: Temperature: 40° C.; Mobile phases: 0.1% aqueous formic acid and acetonitrile; linear gradient from 10% acetonitrile to 90% acetonitrile. Calibration was carried out using unbranched alkan-2-ones (comprising 3 to 16 carbon atoms) with known log P values (determination of the log P values by the retention times using linear interpolation between two successive alkanones). lambda-max-values were determined using UV-spectra from 200 nm to 400 nm and the peak values of the chromatographic signals.

The test system of the next data set is Puccinia triticina. Nature of the data set: In vivo preventive test on Puccinia triticina (wheat). To be noted: 500 ppm of active ingredient, evaluated 8 days after inoculation. How it is done:
EXAMPLE E: IN VIVO PREVENTIVE TEST ON PUCCINIA TRITICINA (WHEAT)
Solvent: 49 parts by weight of N,N-dimethylacetamide
Emulsifier: 1 part by weight of alkylaryl polyglycol ether
To produce a suitable preparation of active compound, 1 part by weight of active compound or active compound combination is mixed with the stated amounts of solvent and emulsifier, and the concentrate is diluted with water to the desired concentration.
To test for preventive activity, young plants are sprayed with the preparation of active compound or active compound combination at the stated rate of application.
After the spray coating has been dried, the plants are sprayed with a spore suspension of Puccinia triticina. The plants remain for 48 hours in an incubation cabinet at approximately 20° C. and a relative atmospheric humidity of approximately 100%.
The plants are placed in the greenhouse at a temperature of approximately 20° C. and a relative atmospheric humidity of approximately 80%.
The test is evaluated 8 days after the inoculation. 0% means an efficacy which corresponds to that of the untreated control, while an efficacy of 100% means that no disease is observed.
Under these conditions, high (at least 85%) to total protection is observed at a dose of 500 ppm of active ingredient with the following compounds from table E: […]

In a further data set the test system is Septoria tritici. The data set can be described thus: In vivo preventive test on Septoria tritici (wheat). To be noted: 500 ppm of active ingredient, evaluated 21 days after inoculation. On the procedure:
EXAMPLE G: IN VIVO PREVENTIVE TEST ON SEPTORIA TRITICI (WHEAT) Solvent: 49 parts by weight of N,N-dimethylacetamide Emulsifier: 1 part by weight of alkylaryl polyglycol ether To produce a suitable preparation of active compound, 1 part by weight of active compound or active compound combination is mixed with the stated amounts of solvent and emulsifier, and the concentrate is diluted with water to the desired concentration. To test for preventive activity, young plants are sprayed with the preparation of active compound or active compound combination at the stated rate of application. After the spray coating has dried on, the plants are sprayed with a spore suspension of Septoria tritici. The plants remain for 48 hours in an incubation cabinet at approximately 20° C. and a relative atmospheric humidity of approximately 100% and then 60 hours at approximately 15° C. in a translucent incubation cabinet at a relative atmospheric humidity of approximately 100%. The plants are placed in a greenhouse at a temperature of approximately 15° C. and a relative atmospheric humidity of approximately 80%. The test is evaluated 21 days after the inoculation. 0% means an efficacy which corresponds to that of the control, while an efficacy of 100% means that no disease is observed. Under these conditions, total protection is observed at a dose of 500 ppm of active ingredient with the following compounds from table G: […]

Each structure is given as a SMILES string.

One may read the chromatographic logP as a lipophilicity value derived from retention on a column. In the case of `CC(C1Cc2ccccc2C1)N(C(=O)c1c(C(F)F)nn(C)c1F)C1CC1` (stereo not drawn) [Example 14, N-cyclopropyl-3-(difluoromethyl)-N-[1-(indan-2-yl)ethyl]-5-fluoro-1-methyl-1H-pyrazole-4-carboxamide], the Efficacy in the data set on Alternaria solani was 95%; in the data set with Pyrenophora teres it was 100%; in the data set on Puccinia triticina, 100%; in the data set on Septoria tritici, 100%. The chromatographic logP in data set [1] (reversed-phase HPLC column (C 18)) is 3.76.

Broadly, the logP is a log measure of how a compound divides between an organic and an aqueous phase. On to `CC(C1CCc2ccccc2C1)N(C(=O)c1c(C(F)F)nn(C)c1F)C1CC1` (stereo not drawn) [Example 16], for which the Efficacy with Alternaria solani was 95%; with Pyrenophora teres, 100%; in the data set with Puccinia triticina it was 100%; with Septoria tritici it was 100%. Besides, the logP in data set [1] turned out to be 3.99.

`CCc1nn(C)c(F)c1C(=O)N(C1CC1)C(C)C1Cc2ccccc2C1` (stereo not drawn) [Example 12]: the Efficacy in the data set on Alternaria solani, in the data set on Pyrenophora teres, in the data set on Puccinia triticina and with Septoria tritici was 100% each time. The logP in data set [1] worked out at 3.67.

On to `Cc1nn(C)c(F)c1C(=O)N(C1CC1)C(C)C1Cc2ccccc2C1` (stereo not drawn) [Example 11], for which the Efficacy with Alternaria solani, with Pyrenophora teres, with Puccinia triticina and in the data set on Septoria tritici was 100% in each case. The compound further yielded a log partition coefficient (logP) in data set [1] of 3.25.

For `CC(C1Cc2ccccc2C1)N(C(=O)c1cn(C)nc1C(F)F)C1CC1` (stereo not drawn) [Example 13], the Efficacy in the data set on Alternaria solani, in the data set on Pyrenophora teres, in the data set with Puccinia triticina and with Septoria tritici was 100% throughout. The same compound displayed a logP in data set [1] of 3.33.

For the compound `CCC(C1CCc2ccccc2C1)N(C(=O)c1c(C(F)F)nn(C)c1F)C1CC1` (stereo not drawn) [Example 17], the Efficacy in the data set on Alternaria solani was 80%; in the data set on Pyrenophora teres, 100%; with Puccinia triticina it was 88%; with Septoria tritici, 100%. For the same compound, the logP in data set [1] turned out to be 4.41.
